≈ marks a conversion by molar mass, not a printed value. Calls of active or inactive are those of the source. The rule behind the calls is not given here.
Assays:
Staphylococcus aureus [1] = experiment: Antibacterial activity against methicillin-resistant Staphylococcus aureus CCARM 3095 strain assessed as bacterial growth inhibition measured at 18 to 24 hrs by microdilution assay; type: functional; details: time 18-24 hrs
Staphylococcus aureus [2] = experiment: Additive antibacterial activity against methicillin-resistant Staphylococcus aureus CCARM 3089 strain assessed as bacterial growth inhibition in presence of chloramphenicol by checkerboard assay; type: functional
Staphylococcus aureus [3] = experiment: Synergistic antibacterial activity against methicillin-resistant Staphylococcus aureus CCARM 3089 strain assessed as oxacillin MIC by checkerboard assay; type: functional
Escherichia coli [4] = experiment: Antibacterial activity against Escherichia coli KCTC 1682 strain assessed as bacterial growth inhibition measured at 18 to 24 hrs in presence of 6 uM NH4Cl by microdilution assay; type: functional; details: time 18-24 hrs
Escherichia coli [5] = experiment: Antibacterial activity against Escherichia coli KCTC 1682 strain assessed as bacterial growth inhibition measured at 18 to 24 hrs by microdilution assay; type: functional; details: time 18-24 hrs
Staphylococcus aureus [6] = experiment: Antibacterial activity against Staphylococcus aureus KCTC 1621 strain assessed as bacterial growth inhibition measured at 18 to 24 hrs in presence of 20% human serum by microdilution assay; type: functional; details: time 18-24 hrs
Escherichia coli [7] = experiment: Antibacterial activity against Escherichia coli KCTC 1682 strain assessed as bacterial growth inhibition measured at 18 to 24 hrs in presence of 2.5 mM CaCl2 by microdilution assay; type: functional; details: time 18-24 hrs
Escherichia coli [8] = experiment: Antibacterial activity against Escherichia coli KCTC 1682 strain assessed as bacterial growth inhibition measured at 18 to 24 hrs in presence of 1 mM MgCl2 by microdilution assay; type: functional; details: time 18-24 hrs
Lipopolysaccharide (LPS) = experiment: Binding affinity to Escherichia coli O111:B4 lipopolysaccharide assessed as suppression of FTIC labeled LPS binding to mouse RAW264.7 cells at 20 ug/ml pretreated with LPS followed by compound addition by flow cytometer assay (reference value: 67.4%); type: cell-based; details: dose 20.0 µg/ml
Pseudomonas aeruginosa [9] = experiment: Synergistic antibacterial activity against multidrug-resistant Pseudomonas aeruginosa CCARM 2095 strain assessed as bacterial growth inhibition in presence of ciprofloxacin by checkerboard assay; type: functional
Cell membrane [10] = experiment: Induction of outer membrane permeabilization in Escherichia coli KCTC 1682 assessed as increase in fluorescence intensity at 2 to 8 ug/ml by NPN staining based analysis; details: dose 2-8 µg/ml
Staphylococcus aureus [11] = experiment: Synergistic antibacterial activity against multidrug-resistant Staphylococcus aureus CCARM 3089 strain assessed as oxacillin fractional inhibitory concentration by checkerboard assay; type: functional
Staphylococcus aureus [12] = experiment: Antibacterial activity against methicillin-resistant Staphylococcus aureus CCARM 3089 strain assessed as bacterial growth inhibition measured at 18 to 24 hrs by microdilution assay; type: functional; details: time 18-24 hrs
Staphylococcus aureus [13] = experiment: Antibacterial activity against Staphylococcus aureus KCTC 1621 strain assessed as bacterial growth inhibition measured at 18 to 24 hrs in presence of 1 mM MgCl2 by microdilution assay; type: functional; details: time 18-24 hrs
Pseudomonas aeruginosa [14] = experiment: Antibiofilm activity against multidrug-resistant Pseudomonas aeruginosa assessed as inhibition of biofilm formation; type: functional
Pseudomonas aeruginosa [15] = experiment: Antibacterial activity against Pseudomonas aeruginosa KCTC 1637 strain assessed as bacterial growth inhibition measured at 18 to 24 hrs by microdilution assay; type: functional; details: time 18-24 hrs
Escherichia coli [16] = experiment: Antibacterial activity against Escherichia coli KCTC 1682 strain assessed as bacterial growth inhibition measured at 18 to 24 hrs in presence of 150 mM NaCl by microdilution assay; type: functional; details: time 18-24 hrs
Staphylococcus aureus [17] = experiment: Antibacterial activity against methicillin-resistant Staphylococcus aureus CCARM 3089 strain assessed as bacterial growth inhibition by checkerboard assay; type: functional
RAW264.7 = experiment: Antiinflammatory activity in LPS-induced mouse RAW264.7 cells assessed as reduction in TNF alpha mRNA expression level at 20 ug/ml measured after 18 hrs by RT-PCR assay relative to control; type: functional, cell-based; details: dose 20.0 µg/ml
Staphylococcus aureus [18] = experiment: Synergistic antibacterial activity against methicillin-resistant Staphylococcus aureus CCARM 3089 strain assessed as fractional inhibitory concentration in presence of oxacillin by checkerboard assay; type: functional
Escherichia coli [19] = experiment: Antibacterial activity against Escherichia coli KCTC 1682 strain assessed as bacterial growth inhibition measured after 6 hrs in presence of pepsin by radial diffusion assay; type: functional, organism-based
Pseudomonas aeruginosa [20] = experiment: Synergistic antibacterial activity against multidrug-resistant Pseudomonas aeruginosa CCARM 2095 strain assessed as ciprofloxacin MIC by checkerboard assay; type: functional
Staphylococcus aureus [21] = experiment: Additive antibacterial activity against multidrug-resistant Staphylococcus aureus CCARM 3089 strain assessed as oxacillin fractional inhibitory concentration by checkerboard assay; type: functional
Escherichia coli [22] = experiment: Antibacterial activity against Escherichia coli KCTC 1682 strain assessed as bacterial growth inhibition measured after 6 hrs in presence of chymotrypsin by radial diffusion assay; type: functional, organism-based
Pseudomonas aeruginosa [23] = experiment: Antibacterial activity against multidrug-resistant Pseudomonas aeruginosa CCARM 2109 strain assessed as bacterial growth inhibition measured at 18 to 24 hrs by microdilution assay; type: functional; details: time 18-24 hrs
Cell membrane [24] = experiment: Induction of cell membrane damage in Escherichia coli KCTC 1682 assessed as increase in fluorescent intensity at 2 times MIC incubated for 30 mins by PI staining based flow cytometry assay (reference value: 9.79 %); type: subcellular
Staphylococcus aureus [25] = experiment: Antibacterial activity against Staphylococcus aureus KCTC 1621 strain assessed as bacterial growth inhibition measured at 18 to 24 hrs in presence of 150 mM NaCl by microdilution assay; type: functional; details: time 18-24 hrs
Pseudomonas aeruginosa [26] = experiment: Synergistic antibacterial activity against multidrug-resistant Pseudomonas aeruginosa CCARM 2095 strain assessed as bacterial growth inhibition in presence of chloramphenicol by checkerboard assay; type: functional
Pseudomonas aeruginosa [27] = experiment: Synergistic antibacterial activity against multidrug-resistant Pseudomonas aeruginosa CCARM 2095 strain assessed as chloramphenicol MIC by checkerboard assay; type: functional
Staphylococcus aureus [28] = experiment: Synergistic antibacterial activity against methicillin-resistant Staphylococcus aureus CCARM 3089 strain assessed as fractional inhibitory concentration in presence of ciprofloxacin by checkerboard assay; type: functional
Staphylococcus aureus [29] = experiment: Synergistic antibacterial activity against multidrug-resistant Staphylococcus aureus CCARM 3089 strain assessed as fractional inhibitory concentration index in presence of ciprofloxacin by checkerboard assay; type: functional
Pseudomonas aeruginosa [30] = experiment: Synergistic antibacterial activity against multidrug-resistant Pseudomonas aeruginosa CCARM 2095 strain assessed as fractional inhibitory concentration index in presence of chloramphenicol by checkerboard assay; type: functional
Staphylococcus aureus [31] = experiment: Synergistic antibacterial activity against methicillin-resistant Staphylococcus aureus CCARM 3089 strain assessed as ciprofloxacin MIC by checkerboard assay; type: functional
Pseudomonas aeruginosa [32] = experiment: Synergistic antibacterial activity against multidrug-resistant Pseudomonas aeruginosa CCARM 2095 strain assessed as chloramphenicol fractional inhibitory concentration in presence of chloramphenicol by checkerboard assay; type: functional
Pseudomonas aeruginosa [33] = experiment: Synergistic antibacterial activity against multidrug-resistant Pseudomonas aeruginosa CCARM 2095 strain assessed as chloramphenicol fractional inhibitory concentration by checkerboard assay; type: functional
Pseudomonas aeruginosa [34] = experiment: Synergistic antibacterial activity against multidrug-resistant Pseudomonas aeruginosa CCARM 2095 strain assessed as bacterial growth inhibition by checkerboard assay; type: functional
Pseudomonas aeruginosa [35] = experiment: Synergistic antibacterial activity against multidrug-resistant Pseudomonas aeruginosa CCARM 2095 strain assessed as fractional inhibitory concentration index in presence of oxacillin by checkerboard assay; type: functional

Structure (SMILES)	MIC (Staphylococcus aureus [1])	MIC (Staphylococcus aureus [2])	MIC (Escherichia coli [4])	MIC (Escherichia coli [5])	MIC (Staphylococcus aureus [6])	MIC (Escherichia coli [7])	MIC (Escherichia coli [8])	Flu intensity (Lipopolysaccharide (LPS))	Activity (Cell membrane [10])	MIC (Staphylococcus aureus [12])	MIC (Staphylococcus aureus [13])	MIC (Pseudomonas aeruginosa [15])	MIC (Escherichia coli [16])	MIC (Staphylococcus aureus [17])	Activity (RAW264.7)	Activity (Escherichia coli [19])	Activity (Escherichia coli [22])	MIC (Pseudomonas aeruginosa [23])	Flu intensity (Cell membrane [24])	MIC (Staphylococcus aureus [25])	other results
NCCNc1nc(NCCN)nc(N2CC(Cc3ccccc3)N(c3nc(NCCN)nc(NCCN)n3)CC2Cc2ccccc2)n1 (centres undefined)	12.2 µM (≈ 8.01 µg/mL)	16 µg/mL	6.1 µM	6.1 µM (≈ 4.01 µg/mL)	12.2 µM	6.1 µM	6.1 µM	21.4%	inactive	48.6 µM (≈ 31.9 µg/mL)	6.1 µM	6.1 µM (≈ 4.01 µg/mL)	6.1 µM	32 µg/mL	Active	Active	Active	24.3 µM (≈ 16 µg/mL)	8.57%	6.1 µM	MIC (Staphylococcus aureus [3]): 256 µg/mL; MIC (Pseudomonas aeruginosa [9]): 4 µg/mL; FIC (Staphylococcus aureus [11]): 0.25; MBEC50 (Pseudomonas aeruginosa [14]): 24.3 µM; MBEC90 (Pseudomonas aeruginosa [14]): 97.3 µM; MBIC (Pseudomonas aeruginosa [14]): 24.3 µM; MBIC50 (Pseudomonas aeruginosa [14]): 3 µM; FIC (Staphylococcus aureus [18]): 0.25; MIC (Pseudomonas aeruginosa [20]): 256 µg/mL; FIC (Staphylococcus aureus [21]): 0.25
NCCCN(CCCN)c1nc(NCc2ccccc2)nc(N2CC(Cc3ccccc3)N(c3nc(NCc4ccccc4)nc(N(CCCN)CCCN)n3)CC2Cc2ccccc2)n1 (centres undefined)	5 µM (≈ 4.47 µg/mL)		5 µM	5 µM (≈ 4.47 µg/mL)	10 µM	5 µM	5 µM	13.2%	inactive	5 µM (≈ 4.47 µg/mL)	10 µM	10 µM (≈ 8.93 µg/mL)	2.5 µM	4 µg/mL	Active	Active	Active	10 µM (≈ 8.93 µg/mL)	3.03%	2.5 µM	MIC (Staphylococcus aureus [3]): 128 µg/mL; MIC (Pseudomonas aeruginosa [26]): 4 µg/mL; MIC (Pseudomonas aeruginosa [9]): 4 µg/mL; FIC (Staphylococcus aureus [11]): 0.25; MIC (Pseudomonas aeruginosa [27]): 128 µg/mL; MBEC50 (Pseudomonas aeruginosa [14]): 10 µM; MBEC90 (Pseudomonas aeruginosa [14]): 39.8 µM; MBIC (Pseudomonas aeruginosa [14]): 10 µM; MBIC50 (Pseudomonas aeruginosa [14]): 5 µM; FIC (Staphylococcus aureus [28]): 0.25; FIC (Staphylococcus aureus [18]): 0.25; fractional inhibitory concentration index (FICI) (Staphylococcus aureus [29]): 0.375; fractional inhibitory concentration index (FICI) (Pseudomonas aeruginosa [30]): 0.375; MIC (Pseudomonas aeruginosa [20]): 64 µg/mL; FIC (Staphylococcus aureus [21]): 0.125; MIC (Staphylococcus aureus [31]): 64 µg/mL; FIC (Pseudomonas aeruginosa [32]): 0.25; FIC (Pseudomonas aeruginosa [33]): 0.125; MIC (Pseudomonas aeruginosa [34]): 16 µg/mL; fractional inhibitory concentration index (FICI) (Pseudomonas aeruginosa [35]): 0.5
N=C(N)NCCNc1nc(NCCNC(=N)N)nc(N2CC(Cc3ccccc3)N(c3nc(NCCNC(=N)N)nc(NCCNC(=N)N)n3)CC2Cc2ccccc2)n1 (centres undefined)	9.7 µM (≈ 8 µg/mL)	4 µg/mL	9.7 µM	17.7 µM (≈ 14.6 µg/mL)	9.6 µM	9.7 µM	9.7 µM	21.1%	inactive	9.7 µM (≈ 8 µg/mL)	9.6 µM	4.8 µM (≈ 3.96 µg/mL)	9.7 µM	8 µg/mL	Active	Active	Active	19.4 µM (≈ 16 µg/mL)	2.55%	4.8 µM	
